Type in all cases: cell-based
The target of one assay is T1, human TLR9 (Homo sapiens, UniProt Q9NR96).
T1 construct: host or cells: HEK-Blue cells (HEK293-derived reporter line)
T1 sequence (Q9NR96 26-1032): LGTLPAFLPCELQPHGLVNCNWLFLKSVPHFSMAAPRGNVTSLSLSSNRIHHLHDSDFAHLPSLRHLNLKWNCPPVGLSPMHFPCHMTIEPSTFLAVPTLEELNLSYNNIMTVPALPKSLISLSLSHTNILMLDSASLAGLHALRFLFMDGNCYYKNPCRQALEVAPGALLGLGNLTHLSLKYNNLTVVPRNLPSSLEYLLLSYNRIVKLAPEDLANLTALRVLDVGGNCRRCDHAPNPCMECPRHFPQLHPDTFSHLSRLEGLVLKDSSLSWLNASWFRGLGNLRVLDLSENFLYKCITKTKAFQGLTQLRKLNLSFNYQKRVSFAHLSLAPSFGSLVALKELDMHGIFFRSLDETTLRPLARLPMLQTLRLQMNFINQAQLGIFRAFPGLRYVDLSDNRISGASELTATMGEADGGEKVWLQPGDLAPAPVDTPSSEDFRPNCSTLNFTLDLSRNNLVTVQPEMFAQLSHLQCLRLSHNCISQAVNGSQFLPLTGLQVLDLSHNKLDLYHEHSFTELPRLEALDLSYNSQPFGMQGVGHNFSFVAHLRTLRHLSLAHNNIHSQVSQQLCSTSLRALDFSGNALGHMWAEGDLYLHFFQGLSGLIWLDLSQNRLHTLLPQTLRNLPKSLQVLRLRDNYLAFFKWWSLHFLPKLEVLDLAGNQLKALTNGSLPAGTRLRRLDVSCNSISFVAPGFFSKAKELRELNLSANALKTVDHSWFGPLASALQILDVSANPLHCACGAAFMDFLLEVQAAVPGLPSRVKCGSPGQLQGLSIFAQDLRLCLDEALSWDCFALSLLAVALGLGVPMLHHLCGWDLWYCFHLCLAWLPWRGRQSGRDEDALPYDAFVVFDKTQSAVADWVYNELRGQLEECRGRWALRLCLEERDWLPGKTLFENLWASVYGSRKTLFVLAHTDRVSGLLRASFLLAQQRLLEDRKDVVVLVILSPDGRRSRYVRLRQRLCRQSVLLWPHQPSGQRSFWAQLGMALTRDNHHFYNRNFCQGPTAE
The assay is described as follows: TLR9 inhibition reporter assay (HEK-Blue cells, SEAP reporter, ODN2006 stimulation). The following applies: HEK-Blue cells overexpressing human TLR9, SEAP reporter, ODN2006 5 nM. In a few lines:
(§1)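 Cells seeded per well (15000 TLR7, 20,000 TLR8, 25,000 TLR9); compound added over 0.05 nM–50 μM for 30 min at room temperature; agonist added (TLR7 gardiquimod 7.5 μM, TLR8 R848 15.9 μM, TLR9 ODN2006 5 nM); 22 h at 37 °C; SEAP measured; percent inhibition calculated.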

A further assay concerns the target T2, human TLR7 (Homo sapiens, UniProt Q9NYK1).
T2 construct: host or cells: HEK-Blue cells (HEK293-derived reporter line)
T2 sequence (Q9NYK1 27-1049): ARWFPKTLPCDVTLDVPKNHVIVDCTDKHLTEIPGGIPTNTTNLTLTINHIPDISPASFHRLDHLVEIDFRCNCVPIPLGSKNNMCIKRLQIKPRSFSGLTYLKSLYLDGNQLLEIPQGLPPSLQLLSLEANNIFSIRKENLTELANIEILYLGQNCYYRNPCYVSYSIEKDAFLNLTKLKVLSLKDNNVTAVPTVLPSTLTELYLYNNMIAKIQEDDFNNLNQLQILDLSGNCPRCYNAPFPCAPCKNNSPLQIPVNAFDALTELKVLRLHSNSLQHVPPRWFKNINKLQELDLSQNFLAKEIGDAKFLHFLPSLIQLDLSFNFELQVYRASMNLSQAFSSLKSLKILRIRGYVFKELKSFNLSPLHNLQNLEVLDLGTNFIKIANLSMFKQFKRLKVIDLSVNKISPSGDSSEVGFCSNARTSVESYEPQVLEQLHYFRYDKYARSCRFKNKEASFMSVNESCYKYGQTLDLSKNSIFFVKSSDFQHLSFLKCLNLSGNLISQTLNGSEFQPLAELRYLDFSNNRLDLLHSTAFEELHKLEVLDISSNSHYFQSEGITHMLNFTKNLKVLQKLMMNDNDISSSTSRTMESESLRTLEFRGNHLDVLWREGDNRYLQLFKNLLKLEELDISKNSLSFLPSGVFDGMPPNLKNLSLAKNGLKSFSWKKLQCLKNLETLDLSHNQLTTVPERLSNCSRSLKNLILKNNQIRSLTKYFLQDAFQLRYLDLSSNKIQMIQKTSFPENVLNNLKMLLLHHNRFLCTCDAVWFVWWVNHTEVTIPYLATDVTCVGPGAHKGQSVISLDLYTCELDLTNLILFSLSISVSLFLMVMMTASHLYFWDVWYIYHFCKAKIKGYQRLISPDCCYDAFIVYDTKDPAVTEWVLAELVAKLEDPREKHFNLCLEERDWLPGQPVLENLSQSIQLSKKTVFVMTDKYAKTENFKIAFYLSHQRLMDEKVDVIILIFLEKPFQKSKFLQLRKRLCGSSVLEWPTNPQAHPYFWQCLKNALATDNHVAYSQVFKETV
The assay is described as follows: TLR7 inhibition reporter assay (HEK-Blue cells, SEAP reporter, gardiquimod stimulation). To be noted: HEK-Blue cells overexpressing human TLR7, SEAP reporter, gardiquimod 7.5 μM. An outline of the steps: as §1

In a further assay the target is T3, human TLR8 (Homo sapiens, UniProt Q9NR97).
T3 construct: host or cells: HEK-Blue cells (HEK293-derived reporter line)
T3 sequence (Q9NR97 27-1041): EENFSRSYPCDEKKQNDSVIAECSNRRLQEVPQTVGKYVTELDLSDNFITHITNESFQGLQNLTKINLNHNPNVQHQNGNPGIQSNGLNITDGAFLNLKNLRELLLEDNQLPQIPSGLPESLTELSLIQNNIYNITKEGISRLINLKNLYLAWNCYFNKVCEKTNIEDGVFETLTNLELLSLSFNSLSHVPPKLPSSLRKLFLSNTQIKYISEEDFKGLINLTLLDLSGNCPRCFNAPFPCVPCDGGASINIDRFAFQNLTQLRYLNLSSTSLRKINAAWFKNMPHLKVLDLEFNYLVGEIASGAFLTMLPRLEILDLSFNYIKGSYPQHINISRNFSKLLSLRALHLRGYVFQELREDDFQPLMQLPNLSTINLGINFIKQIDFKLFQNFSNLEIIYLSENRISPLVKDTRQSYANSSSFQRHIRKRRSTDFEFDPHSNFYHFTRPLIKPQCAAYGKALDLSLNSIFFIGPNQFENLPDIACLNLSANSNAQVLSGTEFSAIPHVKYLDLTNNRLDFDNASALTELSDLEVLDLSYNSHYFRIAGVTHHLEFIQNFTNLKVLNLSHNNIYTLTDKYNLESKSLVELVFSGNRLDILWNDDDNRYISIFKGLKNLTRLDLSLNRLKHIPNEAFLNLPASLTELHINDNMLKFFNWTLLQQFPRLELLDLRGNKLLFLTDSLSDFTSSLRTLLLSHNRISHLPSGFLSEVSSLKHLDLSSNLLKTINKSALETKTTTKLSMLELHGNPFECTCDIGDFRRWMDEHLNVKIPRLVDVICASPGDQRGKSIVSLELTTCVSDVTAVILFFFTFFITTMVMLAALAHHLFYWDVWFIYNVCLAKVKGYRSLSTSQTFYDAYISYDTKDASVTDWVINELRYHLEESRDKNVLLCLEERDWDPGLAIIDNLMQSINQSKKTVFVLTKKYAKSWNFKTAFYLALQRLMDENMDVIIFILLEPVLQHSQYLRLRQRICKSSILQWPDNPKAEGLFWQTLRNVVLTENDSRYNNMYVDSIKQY
The assay is described as follows: TLR8 inhibition reporter assay (HEK-Blue cells, SEAP reporter, R848 stimulation). The following applies: HEK-Blue cells overexpressing human TLR8, SEAP reporter, R848 15.9 μM. An outline of the steps:
as §1
A general note: Reporter assays use an easily measured gene product as a stand-in for the process of interest.

In patent publication US11739098B2 (BRISTOL-MYERS SQUIBB COMPANY, priority 2017, dated 2023) one finds IC50 data, which are given here for 12 compounds.

Molecules are shown by their SMILES.

For orientation: IC50 means the midpoint of a concentration-inhibition curve. A higher IC50 goes with weaker potency.

Regarding `CNC(=O)CN1CCC(c2ccc3[nH]c(-c4ccc5ncnn5n4)c(C(C)C)c3c2)CC1` [Example 277, 2-(4-(2-([1,2,4]triazolo[1,5-b]pyridazin-6-yl)-3-isopropyl-1H-indol-5-yl)piperidin-1-yl)-N-methylacetamide], the half-inhibitory concentration (IC50) against human TLR9 was 1000 to 50000 nM; on human TLR7, below 100 nM; against human TLR8, below 100 nM.
`CC(C)c1c(-c2ccc3ncnn3n2)[nH]c2ccc(C3CCN(CC(=O)N(C)C)CC3)cc12` [Example 278, 2-(4-(2-([1,2,4]triazolo[1,5-b]pyridazin-6-yl)-3-isopropyl-1H-indol-5-yl)piperidin-1-yl)-N,N-dimethylacetamide]: the IC50 against human TLR9 is 1000 to 50000 nM; against human TLR7, below 100 nM; against human TLR8, below 100 nM.
For `CNC(=O)CN1CCC(c2ccc3[nH]c(-c4nn5ncnc5c(C)c4C)c(C(C)C)c3c2)CC1` [Example 279, 2-(4-(2-(7,8-dimethyl-[1,2,4]triazolo[1,5-b]pyridazin-6-yl)-3-isopropyl-1H-indol-5-yl)piperidin-1-yl)-N-methylacetamide], the half-inhibitory concentration (IC50) against human TLR9 is 1000 to 50000 nM; on human TLR7, below 100 nM; at human TLR8 it was below 100 nM.
With `Cc1c(-c2[nH]c3ccc(C4CCN(CC(=O)N(C)C)CC4)cc3c2C(C)C)nn2ncnc2c1C` [Example 280, 2-(4-(2-(7,8-dimethyl-[1,2,4]triazolo[1,5-b]pyridazin-6-yl)-3-isopropyl-1H-indol-5-yl)piperidin-1-yl)-N,N-dimethylacetamide], the IC50 was 1000 to 50000 nM against human TLR9, below 100 nM at human TLR7 and below 100 nM on human TLR8.
As for `CNC(=O)CN1CCC(c2ccc3[nH]c(-c4nn5ncnc5c(OC)c4C)c(C(C)C)c3c2)CC1` [Example 281, 2-(4-(3-isopropyl-2-(8-methoxy-7-methyl-[1,2,4]triazolo[1,5-b]pyridazin-6-yl)-1H-indol-5-yl)piperidin-1-yl)-N-methylacetamide], the concentration for half-maximal inhibition (IC50) on human TLR9 is 1000 to 50000 nM; on human TLR7, below 100 nM; against human TLR8 it was below 100 nM.
Turning to `COc1c(C)c(-c2[nH]c3ccc(C4CCN(CC(=O)N(C)C)CC4)cc3c2C(C)C)nn2ncnc12` [Example 282, 2-(4-(3-isopropyl-2-(8-methoxy-7-methyl-[1,2,4]triazolo[1,5-b]pyridazin-6-yl)-1H-indol-5-yl)piperidin-1-yl)-N,N-dimethylacetamide], the results for the half-maximal inhibitory concentration (IC50) against human TLR9, against human TLR7 and against human TLR8 were 1000 to 50000 nM, below 100 nM and below 100 nM, respectively.
In the case of `COc1cc(-c2[nH]c3ccc(C4CCN(CC(=O)N(C)C)CC4)cc3c2C(C)C)nn2ncnc12` [Example 283, 2-(4-(3-isopropyl-2-(8-methoxy-[1,2,4]triazolo[1,5-b]pyridazin-6-yl)-1H-indol-5-yl)piperidin-1-yl)-N,N-dimethylacetamide], the results for the half-inhibitory concentration (IC50) at human TLR9, against human TLR7 and on human TLR8 were 1000 to 50000 nM, below 100 nM and 100 to 1000 nM, respectively.
The matching figures for `COc1cc(-c2[nH]c3ccc(C4CCN(CC(N)=O)CC4)cc3c2C(C)C)nn2ncnc12` [Example 284, 2-(4-(3-isopropyl-2-(8-methoxy-[1,2,4]triazolo[1,5-b]pyridazin-6-yl)-1H-indol-5-yl)piperidin-1-yl)acetamide]: 1000 to 50000 nM, below 100 nM and below 100 nM.
For the compound `Cc1ccnc2c1c(-c1[nH]c3ccc(C4CCN(CC(=O)N(C)C)CC4)cc3c1C(C)C)cn2C` [Example 285, 2-(4-(2-(1,4-dimethyl-1H-pyrrolo[2,3-b]pyridin-3-yl)-3-isopropyl-1H-indol-5-yl)piperidin-1-yl)-N,N-dimethylacetamide], the 50% inhibitory concentration (IC50) on human TLR9 is 1000 to 50000 nM; against human TLR7, below 100 nM; against human TLR8, below 100 nM.
As to `Cc1c(-c2[nH]c3ccc(C4CCN(CC(=O)N(C)C)CC4)cc3c2C(C)C)c2cccnc2n1C` [Example 286, 2-(4-(2-(1,2-dimethyl-1H-pyrrolo[2,3-b]pyridin-3-yl)-3-isopropyl-1H-indol-5-yl)piperidin-1-yl)-N,N-dimethylacetamide], the IC50 on human TLR9 was 1000 to 50000 nM; on human TLR7, below 100 nM; against human TLR8, below 100 nM.
On to `Cc1cc(-c2[nH]c3ccc(C4CCN(CC(=O)N(C)C)CC4)cc3c2C(C)C)cc2[nH]cnc12` [Example 287, 2-(4-(3-isopropyl-2-(4-methyl-1H-benzo[d]imidazol-6-yl)-1H-indol-5-yl)piperidin-1-yl)-N,N-dimethylacetamide], for which the IC50 was 1000 to 50000 nM at human TLR9, 1000 to 50000 nM against human TLR7 and 100 to 1000 nM against human TLR8.
For the compound `CC(C)c1c(-c2ccc3ncoc3c2)[nH]c2ccc(C3CCN(CC(=O)N(C)C)CC3)cc12` [Example 288, 2-(4-(2-(benzo[d]oxazol-6-yl)-3-isopropyl-1H-indol-5-yl)piperidin-1-yl)-N,N-dimethylacetamide], the IC50 against human TLR9 is 1000 to 50000 nM; against human TLR7 it was below 100 nM; at human TLR8, below 100 nM.
